One compound from patent US20050209289A1, “Method for vascular dysregulation” (priority 2004, published 2005) can be followed below.

The assay deals with clinical patients. Nature of the assay: Clinical patient encounters treated with vascular dysregulation techniques (trigger elimination plus calcium channel blocker and/or antiemetic); case reports. The settings on record: person. The format is in vivo, human.

Procedure: At Step 36, a personal and family medical history of a patient is collected during a patient encounter. […] At Step 42, a list of environmental triggers for the one or more determined dysregulation pathways to be avoided is prepared for the patient. At Step 44, a list of medical triggers for the one or more determined dysregulation pathway to be avoided is prepared for the patient. At Step 46, the patient's current medication profile, if any, is adjusted for the one or more determined dysregulation pathways, thereby treating the medical condition via the one or more determined dysregulation pathways.
At Step 50, a test is conducted to determine whether a patient has a chronic medical condition and has one or more common symptoms based on a personal and medical history collected during a patient encounter. […] The vascular dysregulation techniques include eliminating environmental triggers, eliminating medical triggers and adjusting patient's current medication profile.

Consider `COc1ccc([C@@H]2Sc3ccccc3N(CCN(C)C)C(=O)[C@@H]2OC(C)=O)cc1` [diltiazem], for which, for the setting “cold toes and fingers, migraine headaches, off caffeine”, the “Cold toes and fingers, Patient E” value was “obtained warm fingers and toes”. Further, for the setting “coffee and diet sodas eliminated, daily dose”, the “Severe headaches and insomnia, Patient H” value is “severe headaches were eliminated and they are sleeping soundly”. Besides, the “Singing voice (unexpected effect), Patient E” value (off caffeine, presumed secondary to decreased post-nasal drip and nasal congestion) was “significantly stronger singing voice”.
